Experimental data published in BindingDB's records for doi:10.7270/Q2DF6PMF (Nmmlsc, 2007).

These compounds were tested against T1, N-formyl peptide receptor 2 (Homo sapiens, UniProt P25090) (assay: concentration-dependent FPRL1 ligand displacement – cell-based, FPR counter-screen, fluorescent ligand, dose response (AID 520)). Details: not given.
T1 sequence (P25090 whole entry): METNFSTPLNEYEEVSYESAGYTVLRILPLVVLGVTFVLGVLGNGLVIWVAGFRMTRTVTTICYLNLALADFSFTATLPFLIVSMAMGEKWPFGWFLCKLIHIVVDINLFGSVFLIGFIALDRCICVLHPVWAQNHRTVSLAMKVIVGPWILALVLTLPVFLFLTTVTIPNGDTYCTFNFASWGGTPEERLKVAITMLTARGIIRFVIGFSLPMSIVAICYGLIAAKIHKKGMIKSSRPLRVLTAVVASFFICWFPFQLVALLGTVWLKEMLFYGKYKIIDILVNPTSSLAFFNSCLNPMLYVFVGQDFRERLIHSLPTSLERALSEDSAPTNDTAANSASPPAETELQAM

| Compound | IC50 | Ki |
| --- | --- | --- |
| COCCCN1C(=O)C(=O)C(C(=O)c2ccco2)C1c1cccc(Br)c1 (stereo not drawn) [2-(3-bromophenyl)-3-(furan-2-carbonyl)-4-hydroxy-1-(3-methoxypropyl)-2H-pyrrol-5-one] | > 66.7 µM | > 40.3 µM |
| O=C1C(=O)N(c2ncccn2)C(c2cccc(Cl)c2)C1C(=O)c1ccco1 (stereo not drawn) [2-(3-chlorophenyl)-3-(furan-2-carbonyl)-4-hydroxy-1-pyrimidin-2-yl-2H-pyrrol-5-one] | > 66.7 µM | > 40.3 µM |
| CCOc1cc(C2C(C(=O)c3ccco3)C(=O)C(=O)N2CCc2ccccc2)ccc1O (stereo not drawn) [2-(3-ethoxy-4-hydroxyphenyl)-3-(furan-2-carbonyl)-4-hydroxy-1-(2-phenylethyl)-2H-pyrrol-5-one] | > 66.7 µM | > 40.3 µM |
| CCOc1cc(C2C(C(=O)c3ccc(C)o3)C(=O)C(=O)N2CCc2ccccc2)ccc1O (stereo not drawn) [2-(3-ethoxy-4-hydroxyphenyl)-4-hydroxy-3-(5-methylfuran-2-carbonyl)-1-(2-phenylethyl)-2H-pyrrol-5-one] | > 66.7 µM | > 40.3 µM |
| COc1cc(C2C(C(=O)c3ccc(C)o3)C(=O)C(=O)N2CCc2ccccc2)ccc1O (stereo not drawn) [2-(3-methoxy-4-oxidanyl-phenyl)-3-(5-methylfuran-2-yl)carbonyl-4-oxidanyl-1-(2-phenylethyl)-2H-pyrrol-5-one] | > 66.7 µM | > 40.3 µM |
| COc1cc(C2C(C(=O)c3ccc(C)o3)C(=O)C(=O)N2Cc2cccnc2)ccc1O (stereo not drawn) [2-(3-methoxy-4-oxidanyl-phenyl)-3-(5-methylfuran-2-yl)carbonyl-4-oxidanyl-1-(pyridin-3-ylmethyl)-2H-pyrrol-5-one] | > 66.7 µM | > 40.3 µM |
| COc1ccc(-c2cc(C(F)(F)F)nc(N3CCN(Cc4ccccc4)CC3)n2)cc1OC [2-(4-benzylpiperazin-1-yl)-4-(3,4-dimethoxyphenyl)-6-(trifluoromethyl)pyrimidine] | 12.1 µM |  |
| COCCCN1C(=O)C(=O)C(C(=O)c2ccco2)C1c1ccc(Br)cc1 (stereo not drawn) [2-(4-bromophenyl)-3-(furan-2-carbonyl)-4-hydroxy-1-(3-methoxypropyl)-2H-pyrrol-5-one] | > 66.7 µM | > 40.3 µM |
| Cc1nc(C)c(C(=O)C2C(=O)C(=O)N(CCCn3ccnc3)C2c2ccc(Cl)cc2)s1 (stereo not drawn) [2-(4-chlorophenyl)-3-(2,4-dimethyl-1,3-thiazole-5-carbonyl)-4-hydroxy-1-(3-imidazol-1-ylpropyl)-2H-pyrrol-5-one] | > 66.7 µM | > 40.3 µM |
| O=C1C(=O)N(c2ncccn2)C(c2ccc(Cl)cc2)C1C(=O)c1ccco1 (stereo not drawn) [2-(4-chlorophenyl)-3-(furan-2-carbonyl)-4-hydroxy-1-pyrimidin-2-yl-2H-pyrrol-5-one] | > 66.7 µM | > 40.3 µM |
| CCOc1ccc(C2C(C(=O)c3cccs3)C(=O)C(=O)N2CCCn2ccnc2)cc1 (stereo not drawn) [2-(4-ethoxyphenyl)-1-(3-imidazol-1-ylpropyl)-4-oxidanyl-3-thiophen-2-ylcarbonyl-2H-pyrrol-5-one] | > 66.7 µM | > 40.3 µM |
| CCOc1ccc(C2C(C(=O)c3ccco3)C(=O)C(=O)N2CCCn2ccnc2)cc1 (stereo not drawn) [2-(4-ethoxyphenyl)-3-(furan-2-carbonyl)-4-hydroxy-1-(3-imidazol-1-ylpropyl)-2H-pyrrol-5-one] | > 66.7 µM | > 40.3 µM |
| CCOc1ccc(C2C(C(=O)c3ccco3)C(=O)C(=O)N2Cc2cccnc2)cc1 (stereo not drawn) [2-(4-ethoxyphenyl)-3-(furan-2-carbonyl)-4-hydroxy-1-(pyridin-3-ylmethyl)-2H-pyrrol-5-one] | > 66.7 µM | > 40.3 µM |
| COC(=O)COc1ccc2c(=O)c(Oc3ccccc3)c(C)oc2c1 [2-(4-keto-2-methyl-3-phenoxy-chromen-7-yl)oxyacetic acid methyl ester] | > 66.7 µM |  |
| COc1ccc2c(=O)c(N3C(=O)c4ccccc4C3=O)c(C)oc2c1 [2-(4-keto-7-methoxy-2-methyl-chromen-3-yl)isoindoline-1,3-quinone] | > 66.7 µM |  |
| COc1ccc(CC(=O)Nc2ccc(-c3nnc(-c4ccc(C)cc4)o3)cc2)cc1 [2-(4-methoxyphenyl)-N-[4-[5-(4-methylphenyl)-1,3,4-oxadiazol-2-yl]phenyl]acetamide] | > 66.7 µM |  |
| O=C(O)CC1Oc2ccc(Cl)cc2NC1=O (stereo not drawn) [2-(6-chloranyl-3-oxidanylidene-4H-1,4-benzoxazin-2-yl)ethanoic acid] | > 66.7 µM |  |
| Cc1cc(SCC(N)=O)nc(SCC(=O)c2ccccc2)n1 [2-(6-methyl-2-phenacylsulfanylpyrimidin-4-yl)sulfanylacetamide] | > 66.7 µM |  |
| CC(C)CN(CC(C)C)C(=O)CS(=O)(=O)Cc1ccccc1 [2-(benzylsulfonyl)-N,N-diisobutylacetamide] | > 66.7 µM |  |

| Compound | IC50 | Ki |
| --- | --- | --- |
| Cc1sc(NC(=O)C2CCCCC2C(=O)O)c(C(N)=O)c1-c1ccc(C(C)(C)C)cc1 (stereo not drawn) [2-({[3-(aminocarbonyl)-4-(4-tert-butylphenyl)-5-methyl-2-thienyl]amino}carbonyl)cyclohexanecarboxylic acid] | > 66.7 µM |  |
| CCc1ccccc1NC(=O)C(C#N)Cc1cccnc1 (stereo not drawn) [2-Cyano-N-(2-ethyl-phenyl)-2-pyridin-3-ylmethyl-acetamide] | > 66.7 µM |  |
| Cc1nn(-c2nc3ccccc3s2)c(C)c1Oc1ccccc1O [2-[1-(1,3-benzothiazol-2-yl)-3,5-dimethyl-pyrazol-4-yl]oxyphenol] | > 66.7 µM |  |
| CC1CCN(S(=O)(=O)c2ccc3c(c2)oc(=O)n3CC(=O)NCc2ccc3c(c2)OCO3)CC1 [2-[2-keto-6-(4-methylpiperidino)sulfonyl-1,3-benzoxazol-3-yl]-N-piperonyl-acetamide] | > 66.7 µM |  |
| CCc1nnc(NC(=O)CSc2nnc(-c3cc4ccccc4cc3O)n2CC)s1 [2-[4-Ethyl-5-(3-hydroxy-naphthalen-2-yl)-4H-[1,2,4]triazol-3-ylsulfanyl]-N-(5-ethyl-[1,3,4]thiadiazol-2-yl)-acetamide] | > 66.7 µM |  |
| COC(=O)Cc1n[nH]c2c1C(C1C=CCCC1)C(C#N)C(=N)O2 (stereo not drawn) [2-[6-amino-5-cyano-4-(1-cyclohex-2-enyl)-2,4-dihydropyrano[2,3-c]pyrazol-3-yl]acetic acid methyl ester] | > 66.7 µM | > 40.3 µM |
| O=C(O)C1CCCCC1C(=O)Nc1ccccc1Cl (stereo not drawn) [2-[(2-chloroanilino)-oxomethyl]-1-cyclohexanecarboxylic acid] | > 66.7 µM |  |
| CCc1nn2c(=O)cc(CSc3nc4sc5c(c4c(=O)n3C)CCCC5)nc2s1 [2-[(2-ethyl-5-keto-[1,3,4]thiadiazolo[3,2-a]pyrimidin-7-yl)methylthio]-3-methyl-5,6,7,8-tetrahydrobenzothiopheno[2,3-d]pyrimidin-4-one] | > 66.7 µM |  |
| Cc1ccc(F)c(NC(=O)C2CCCCC2C(=O)O)c1 (stereo not drawn) [2-[(2-fluoranyl-5-methyl-phenyl)carbamoyl]cyclohexane-1-carboxylic acid] | > 66.7 µM |  |
| COc1ccc(C)cc1NC(=O)C1CCCCC1C(=O)O (stereo not drawn) [2-[(2-methoxy-5-methyl-phenyl)carbamoyl]cyclohexane-1-carboxylic acid] | > 66.7 µM |  |
| N#Cc1c(C(F)(F)F)cc(-c2ccccc2)nc1SCc1nc(N)nc(N2CCOCC2)n1 [2-[(4-amino-6-morpholin-4-yl-1,3,5-triazin-2-yl)methylsulfanyl]-6-phenyl-4-(trifluoromethyl)pyridine-3-carbonitrile] | > 66.7 µM |  |
| CCOC(=O)c1c(NC(=O)c2cc(C3CC3)on2)sc2c1CCCC2 [2-[(5-cyclopropylisoxazole-3-carbonyl)amino]-4,5,6,7-tetrahydrobenzothiophene-3-carboxylic acid ethyl ester] | > 66.7 µM |  |
| COc1cccc(-c2nc(CS(=O)(=O)CC(=O)NCCC(C)C)c(C)o2)c1 [2-[[2-(3-methoxyphenyl)-5-methyl-1,3-oxazol-4-yl]methylsulfonyl]-N-(3-methylbutyl)acetamide] | > 66.7 µM |  |
| CCCNC(=O)CS(=O)(=O)Cc1nc(-c2cccc(OC)c2)oc1C [2-[[2-(3-methoxyphenyl)-5-methyl-1,3-oxazol-4-yl]methylsulfonyl]-N-propyl-ethanamide] | > 66.7 µM |  |
| COc1ccc(Cl)cc1-n1c(=S)sc2c(O)nc(SCC(=O)NCC3CCCO3)nc21 (stereo not drawn) [2-[[3-(5-chloranyl-2-methoxy-phenyl)-7-oxidanylidene-2-sulfanylidene-4H-[1,3]thiazolo[4,5-d]pyrimidin-5-yl]sulfanyl]-N-(oxolan-2-ylmethyl)ethanamide] | > 66.7 µM |  |
| O=C(NCC1CCCO1)c1ccc(NC(=O)C2CCCCC2C(=O)O)cc1 (stereo not drawn) [2-[[4-(oxolan-2-ylmethylcarbamoyl)phenyl]carbamoyl]cyclohexane-1-carboxylic acid] | > 66.7 µM |  |
| CCOC(=O)CSc1nnc(CNC(=O)c2cc(OCC)c(OCC)c(OCC)c2)n1C [2-[[4-methyl-5-[[(3,4,5-triethoxybenzoyl)amino]methyl]-1,2,4-triazol-3-yl]thio]acetic acid ethyl ester] | 11.2 µM |  |
| CCc1cc2c(=O)c(-c3nc4ccccc4n3C)c(COCC(=O)O)oc2cc1OC(=O)C(C)(C)C [2-[[7-(2,2-dimethyl-1-oxopropoxy)-6-ethyl-3-(1-methyl-2-benzimidazolyl)-4-oxo-1-benzopyran-2-yl]methoxy]acetic acid] | > 66.7 µM |  |
| CCOC(=O)c1c(NC(=O)C2C3CCC(O3)C2C(=O)O)sc(C)c1-c1ccc(C)cc1 (stereo not drawn) [2-[[[3-ethoxycarbonyl-5-methyl-4-(4-methylphenyl)-2-thiophenyl]amino]-oxomethyl]-7-oxabicyclo[2.2.1]heptane-3-carboxylic acid] | > 66.7 µM |  |

Same assay, conditions: inactive by the depositor's call

| Compound | IC50 |
| --- | --- |
| CNc1nn(-c2cccc(Cl)c2)nc1N [2-(3-chlorophenyl)-4-N-methyltriazole-4,5-diamine] | 18.2 µM |
| CCOc1cc(C(=O)NCc2nnc(SCC(=O)OC)n2C)cc(OCC)c1OCC [2-[[4-methyl-5-[[(3,4,5-triethoxybenzoyl)amino]methyl]-1,2,4-triazol-3-yl]thio]acetic acid methyl ester] | 18.5 µM |
